{"source": "patent US10239887B2", "about": "“Positive allosteric modulators of the muscarinic acetylcholine receptor M4” (Vanderbilt University, priority 2016, dated 2019)", "key": {"[1]": {"test_system": "amphetamine-induced hyperlocomotion", "assay": "amphetamine-induced hyperlocomotion in rats", "type": "in vivo, male Sprague-Dawley rats", "details": "for percent reversal of amphetamine-induced hyperlocomotion: rat, 1 mg/kg amphetamine s.c.", "experimental": "d-Amphetamine hemisulfate was obtained from Sigma (St. Louis, Mo.). Salt-correction was used to determine the correct amount of the d-amphetamine hemisulfate form in milligrams to add to sterile water in order to yield a […] solution, which would be dosed at 1 mL/kg body weight of each animal. […] The solutions were formulated so that animals were injected with a volume equal to 10 mL/kg body weight for all compounds. The appropriate amount according to the dosage was mixed in 10% Tween 80 (Sigma) in sterile water. The mixtures were then vortexed and stored in a 39° C. sonication bath for 1 hour, until in a microsuspension (except for the highest dose, which was a suspension).\nMale Sprague-Dawley rats weighing 239-300 grams and averaging 265 g (Harlan, Inc., Indianapolis, Ind.) were used. They were housed in the animal care facility certified by the American Association for the Accreditation of Laboratory Animal Care (AALAC) under a 12-hour light/dark cycle (lights on: 6 a.m.; lights off: 6 p.m.) and had free access to food and water. The animals used in this experiment were food-deprived the evening before experimentation for oral dosing of compound/vehicle. The experimental protocols performed during the light cycle were approved by the Institutional Animals Care and Use Committee of Vanderbilt University and conformed to the guidelines established by the National Research Council Guide for the Care and Use of Laboratory Animals.\nMale Harlan Sprague Dawley rats were habituated in Smart Open Field locomotor activity test chambers (Hamilton-Kinder, San Diego, Calif.) with 16×16 photo beams to automatically record locomotor activity. […] They were monitored for an additional 30 minutes and then injected subcutaneously with vehicle or 1 mg/kg amphetamine. Animals were then monitored for an additional 60 minutes, for a total of 120 minutes. Data were expressed as changes in ambulation defined as total number of beam breaks per 5 minute interval. Terminal brain and plasma samples were collected at the end of the study for pharmacokinetic analysis.\nBehavioral data were analyzed using a two-way ANOVA with main effects of treatment and time. Post hoc analysis was performed using a Dunnett's t-test with all treatment groups compared to the VAMP group using GraphPad Prism V.5.04 (GraphPad Software, San Diego, Calif.). Data were graphed using GraphPad Prism V.5.04 (GraphPad Software, San Diego, Calif.). A probability of p<0.05 was taken as the level of statistical significance. In addition, the total number of beam breaks from the amphetamine administration (65 min) to the end of the study (120 min) was calculated and graphed. Percent Reversal was calculated as follows using Microsoft Excel: In each animal, total ambulation from t=65 to t=120 was summed. The mean of each sum was calculated in the VAMP group. Then, for each animal, Percent Reversal was calculated with the following formula: Percent Reversal=100−{[(total ambulation in each animal from t=65 to t=120)/(mean of each sum from t=65 to t=120 in VAMP group)]*100}. The mean Percent Reversal, as well as the standard error, was calculated for each dose group using GraphPad Prism V5.04."}, "[2]": {"assay": "intrinsic clearance, human", "type": "in vitro ADME", "experimental": "(§1) Compound 76 was in several in vitro assays to investigate both metabolism and pharmacokinetics. These assays were performed according to known methods as generally described in the following references: Conde-Ceide et al. ACS Med. Chem. Lett. 2015, 6, 716-720; Morris et al. J. Med. Chem. 2014, 57, 10192-10197; and Bubser et al. ACS Chem. Neurosci. 2014, 5, 920-942."}, "[3]": {"molecular_target": "P450 3A4 (Homo sapiens, UniProt P08684)", "sequence (P08684 whole entry)": "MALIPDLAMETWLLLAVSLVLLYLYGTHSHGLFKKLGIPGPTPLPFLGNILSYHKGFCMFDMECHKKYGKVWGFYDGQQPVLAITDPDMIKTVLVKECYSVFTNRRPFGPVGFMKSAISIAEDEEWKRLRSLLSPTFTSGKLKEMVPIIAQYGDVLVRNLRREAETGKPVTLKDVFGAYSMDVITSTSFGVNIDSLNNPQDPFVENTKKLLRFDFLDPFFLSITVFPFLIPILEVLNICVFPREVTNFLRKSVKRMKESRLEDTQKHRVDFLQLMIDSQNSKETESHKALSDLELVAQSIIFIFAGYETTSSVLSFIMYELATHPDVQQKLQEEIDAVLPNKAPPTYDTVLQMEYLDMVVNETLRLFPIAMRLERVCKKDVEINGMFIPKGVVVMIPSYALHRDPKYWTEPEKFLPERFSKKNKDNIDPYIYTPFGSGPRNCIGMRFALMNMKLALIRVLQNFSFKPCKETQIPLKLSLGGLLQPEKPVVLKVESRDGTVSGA", "assay": "P450 3A4 inhibition", "type": "in vitro ADME", "experimental": "as §1"}, "[4]": {"assay": "in vivo", "details": "rat"}, "[5]": {"assay": "in vivo", "details": "dog, plasma"}, "[6]": {"assay": "in vivo", "details": "cynomolgus monkey"}, "[7]": {"assay": "in vivo DMPK, cyno"}, "[8]": {"molecular_target": "T1, human mAChR M4 (Homo sapiens, UniProt P08173)", "T1 sequence (P08173 1-479)": "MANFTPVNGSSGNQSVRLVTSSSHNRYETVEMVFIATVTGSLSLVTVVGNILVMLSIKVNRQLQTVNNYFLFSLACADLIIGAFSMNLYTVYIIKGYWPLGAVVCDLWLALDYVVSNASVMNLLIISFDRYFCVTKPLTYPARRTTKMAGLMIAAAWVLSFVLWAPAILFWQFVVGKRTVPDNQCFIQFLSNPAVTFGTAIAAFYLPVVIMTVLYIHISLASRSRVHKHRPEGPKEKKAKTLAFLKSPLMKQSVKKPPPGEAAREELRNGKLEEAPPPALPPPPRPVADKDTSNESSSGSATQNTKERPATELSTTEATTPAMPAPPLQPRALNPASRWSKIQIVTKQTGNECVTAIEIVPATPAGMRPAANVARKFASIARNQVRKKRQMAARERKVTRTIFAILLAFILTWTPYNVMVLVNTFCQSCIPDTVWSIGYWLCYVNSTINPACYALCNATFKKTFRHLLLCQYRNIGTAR", "assay": "mAChR M4 cell-based functional assay (calcium flux), human M4", "details": "Human M4; % ACh maximum at 30 μM"}}, "data": [{"smiles": "Cc1nnc2sc3c(NCc4ccc(C(C)(C)O)cc4)ncnc3c2c1C", "note": "[Compound 76, 2-[4-[[(3,4-Dimethylpyrimido[4′,5′:4,5]thieno[2,3-c]pyridazin-8-yl)amino]methyl]phenyl]propan-2-ol]", "values": [{"measurement": "percent reversal of amphetamine-induced hyperlocomotion", "setting": "[1]; 0.1 mg/kg p.o.", "result": 8.1, "unit": "%"}, {"measurement": "percent reversal of amphetamine-induced hyperlocomotion", "setting": "[1]; 0.3 mg/kg p.o.", "result": 32.8, "unit": "%"}, {"measurement": "percent reversal of amphetamine-induced hyperlocomotion", "setting": "[1]; 1 mg/kg p.o.", "result": 50.7, "unit": "%"}, {"measurement": "percent reversal of amphetamine-induced hyperlocomotion", "setting": "[1]; 3 mg/kg p.o.", "result": 44.3, "unit": "%"}, {"measurement": "percent reversal of amphetamine-induced hyperlocomotion", "setting": "[1]; 10 mg/kg p.o.", "result": 62.8, "unit": "%"}, {"measurement": "percent reversal of amphetamine-induced hyperlocomotion", "setting": "[1]; […] p.o.", "result": 25.6, "unit": "%"}, {"measurement": "reversal of amphetamine-induced hyperlocomotion (in words)", "setting": "[1]; systemic administration, similar extent as VU0467154 at 10 mg/kg p.o.", "result": "significant and sustained reversal"}, {"measurement": "CLint scaled", "setting": "[2]", "result": 15, "unit": "mL/min/kg"}, {"measurement": "IC50", "setting": "[3]", "result": 24, "unit": "µM"}, {"measurement": "Kp", "setting": "[4]; brain", "result": 0.31}, {"measurement": "Vd", "setting": "[4]; plasma", "result": 1, "unit": "L/kg"}, {"measurement": "clearance", "setting": "[4]; plasma", "result": 4.4, "unit": "mL/min/kg"}, {"measurement": "half-life", "setting": "[4]; plasma", "result": 3, "unit": "h"}, {"measurement": "Vd", "setting": "[5]", "result": 1.4, "unit": "L/kg"}, {"measurement": "clearance", "setting": "[5]", "result": 4.7, "unit": "mL/min/kg"}, {"measurement": "half-life", "setting": "[5]", "result": 4.2, "unit": "h"}, {"measurement": "Kp", "setting": "[6]; brain", "result": 0.37}, {"measurement": "Kp uu", "setting": "[6]; brain", "result": 0.62}, {"measurement": "Vd", "setting": "[6]; plasma", "result": 0.9, "unit": "L/kg"}, {"measurement": "clearance", "setting": "[6]; plasma", "result": 5.3, "unit": "mL/min/kg"}, {"measurement": "half-life", "setting": "[6]; plasma", "result": 4.5, "unit": "h"}, {"measurement": "Cyno oral F", "setting": "[7]; 3 mg/kg", "result": 44, "unit": "%"}, {"measurement": "Cyno CSF: plasma Kp", "setting": "[7]; cynomolgus monkey, in vivo", "result": 0.01}, {"measurement": "Cyno CSF: plasma Kp, u", "setting": "[7]; cynomolgus monkey, in vivo", "result": 1.1}, {"measurement": "Emax", "setting": "[8]", "result": 86, "unit": "%"}]}]}
